No end group written: not given here.
Assays:
[1] = Solubility in aqueous buffer; format: physicochemical; conditions: water solution at neutral or slightly alkaline pH
[2] = biological target: T1, human growth hormone releasing factor receptor (hGRF-R) (Homo sapiens, UniProt Q02643); test: CHO-hGRFR-LUC in vitro assay (luciferase reporter gene assay); format: cell-based; conditions: DMSO and nicotinamide preparations; FIGS. 5-7
T1 construct: expressed in transfected cells; host or cells: CHO-DUKX (clone CHO-hGRFR-LUC 1-11-20)
T1 sequence (Q02643 23-423): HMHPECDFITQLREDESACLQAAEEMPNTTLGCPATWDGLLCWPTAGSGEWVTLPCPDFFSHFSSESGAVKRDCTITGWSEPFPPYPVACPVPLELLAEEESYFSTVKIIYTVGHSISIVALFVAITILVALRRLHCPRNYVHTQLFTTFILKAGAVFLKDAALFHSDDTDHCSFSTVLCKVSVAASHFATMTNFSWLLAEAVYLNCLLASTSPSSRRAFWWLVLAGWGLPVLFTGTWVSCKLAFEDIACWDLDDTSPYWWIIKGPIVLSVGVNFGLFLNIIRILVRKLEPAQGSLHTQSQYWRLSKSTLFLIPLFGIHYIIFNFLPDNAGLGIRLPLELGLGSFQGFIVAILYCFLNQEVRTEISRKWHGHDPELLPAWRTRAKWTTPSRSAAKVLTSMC
Excerpt: CHO-hGRFR-LUC in Vitro Assay
CHO-hGRFR-LUC (clone 1-11-20) is a cloned cell line that had been obtained by cotransfection of the pcDNA3-hGRF-R and pTF5-53 LUC vectors into CHO-DUKX cell line.
The plasmid pcDNA3-hGRF-R was constructed by inserting the human growth hormone releasing factor receptor (hGRF-R) cDNA into pcDNA3 expression vector. The Bluescript plasmid containing hGRF-R cDNA was kindly provided by Dr. B. Gaylinn (University of Virginia) the pcDNA3 mammalian expression vector was obtained from Invitrogen. The hGRF-R coding sequence was driven by the human cytomegalovirus (CMV) promoter.
The plasmid pTF5-53LUC was constructed by inserting the c-fos cAMP response element along with its endogenous promoter upstream of the luciferase coding sequence in plasmid poLuc. The cAMP response element and the c-fos promoter were obtained from the plasmid pTF5-53 (described in Fish et al, 1989). The promoterless reporter gene vector (poLuc) with multiple cloning sites upstream of the luciferase coding sequence was obtained from Dr. Brasier (University of Texas, Galveston).
These CHO-DUKX cells obtained by the above co-transfection were routinely grown in MEM alpha medium containing ribonucleosides and deoxyribonucleosides and supplemented with 10% fetal calf serum plus 600 μg/ml geneticin G418 sulfate.
The cells were seeded (40,000 cells/well) in white 96-well plates (Dynatech) and incubated for 16-18 hrs in 200 μl growth medium before the assay.
The next day, the medium was removed and replaced with a medium containing different concentrations of hGRF(1-29) in-house reference standard (Bachem) or different hGRF-PEG conjugates before incubating the plates at 37° C., 5% CO2 for two hours. At the end of incubation, CHO-hGRFR-LUC cells were washed twice with 200 μl of PBS (Sigma) and then lysed by adding 50 μl of a cell culture lyses reagent (Promega) to each well. After a further 15-minute incubation at room temperature, the plates were read in a luminometer (Dynatech) after introducing 150 μl of a luciferase assay reagent (Promega).
As an alternative method, CHO-hGRFR-LUC cells, seeded at 50,000 cells/well, at the end of incubation with different hGRF-PEG conjugates, were washed with PBS, as above discussed. To each well 100 μl PBS containing calcium and magnesium ions was added, prior to addition of 100 μl of Luclite (Packard). After 10 minutes incubation at room temperature, plates were read in luminometer (Lumicount-Packard).
Results were expressed as relative light unit (RLU).

[3] = In vivo assay: plasma hGRF levels after i.v. injection in male rats; parameters: species or system Sprague-Dawley rats
Method: (§1) SPF adult male Sprague-Dawley rats, 200-250 g b.w, supplied by Charles River, are used after an acclimatisation period of at least 7 days.
(§2) The animal was injected i.v. with hGRF(1-29) (400 μg/rat). A few minutes before blood collection, the animal was anaesthetized (ketamine-xylazine). […] The sample was divided into two aliquots: 1 ml was collected as such and serum was obtained after an incubation period of about 3 hours at 37° C. and subsequent centrifugation; the remaining 1 ml was collected into a vial containing 50 μl of a 4 mg/ml heparin solution, immediately stored on ice and plasma was obtained after centrifugation at 4° C.
(§3) Blood samples were collected at different time points from the injection of the test compound using different animals. In each experimental session a total of three rats for each time point was used.
(§4) Plasma and serum samples were immediately frozen and stored at −20° C.
(§5) GH serum levels were measured by a commercial RIA kit; hGRF plasma levels were measured by a commercial RIA kit for hGRF(1-44).

GH serum levels = test: In vivo assay: serum GH levels after i.v. injection in male rats; parameters: species or system Sprague-Dawley rats; conditions: for GH serum levels induced, compared with hGRF1-29: 400 μg i.v., rats, DMSO preparations, FIG. 11A
Method: as §1, §2, §3, §4, §5

[4] = cited from earlier work
rat pituitary cell = test: In vitro rat pituitary cell bioassay (GH release); format: cell-based; conditions: two DMSO preparations; FIGS. 8 and 9
Method: In vitro rat pituitary cell bioassay for hGRF(1-29)
The animals (SPF male Sprague-Dawley rats 200 g, b.w.) were sacrificed by CO2 inhalation and the pituitaries removed. The tissue was finely minced and put into a bottle with the enzyme solution for tissue digestion. The bottle was placed in an incubator at 37° C. for 1 hour.
The digested tissue was recovered and the cells washed twice, counted and adjusted to a concentration of 5×10^5/ml. The cells were plated out in a 48-well plate (200 μl/well) and the plate placed in an incubator for 72 hrs.
After 72 hrs the cells were incubated with different concentrations of hGRF for 4 hours. At the end of the incubation period the supernatants were collected and stored at −80° C.
The GH content in each sample was assayed by a commercial rat GH radioimmunoassay kit.

Compound	biological effect (activity) in the CHO-hGRFR-LUC in vitro assay [2]	GH serum levels induced, compared with hGRF1-29 (GH serum levels)	other results
CC[C@H](C)[C@H](NC(=O)[C@H](C)NC(=O)[C@H](CC(=O)O)NC(=O)[C@H](C)NC(=O)[C@@H](N)Cc1ccc(O)cc1)C(=O)N[C@@H](Cc1ccccc1)C(=O)N[C@H](C(=O)N[C@@H](CC(N)=O)C(=O)N[C@@H](CO)C(=O)N[C@@H](Cc1ccc(O)cc1)C(=O)N[C@@H](CCCNC(=N)N)C(=O)N[C@@H](CCCCN)C(=O)N[C@H](C(=O)N[C@@H](CC(C)C)C(=O)NCC(=O)N[C@@H](CCC(N)=O)C(=O)N[C@@H](CC(C)C)C(=O)N[C@@H](CO)C(=O)N[C@@H](C)C(=O)N[C@@H](CCCNC(=N)N)C(=O)N[C@@H](CCCCN)C(=O)N[C@@H](CC(C)C)C(=O)N[C@@H](CC(C)C)C(=O)N[C@@H](CCC(N)=O)C(=O)N[C@@H](CC(=O)O)C(=O)N[C@H](C(=O)N[C@@H](CCSC)C(=O)N[C@@H](CO)C(=O)N[C@@H](CCCNC(=N)N)C(N)=O)[C@@H](C)CC)C(C)C)[C@@H](C)O [hGRF, hGRF(1-29)—NH2, reference compound]	No difference		solubility in neutral/alkaline buffer solution [1]: low solubility; plasma hGRF concentrations up to 60 min ([3]; 400 μg/rat i.v., male rats, FIG. 10): maintained a sustained level; Tmax ([3]; male, Sprague-Dawley, rat, in vivo, iv, 400 ug/animal): 10 min; time at which serum GH returned to basal levels (GH serum levels; 400 μg/rat i.v., male rats): 60 min; time of serum GH peak after i.v. injection (GH serum levels; 400 μg/rat i.v., male rats): 10 min
GRF: peptide secreted by the hypothalamus which promotes the release of growth hormone; exists as 44-, 40-, or 37-amino acid peptide			biological half-life [4]: 12 to 30 minutes
N^α-(PEG5,000—CH2—CO—Nle—CO)[Lys(MPEG5,000—CH2—CO—Nle—CO)^12,21-hGRF(1-29)—NH2] [GRF-3PEG]		lower activity	GH release from rat pituitary cell in vitro (rank of activity) (rat pituitary cell): then GRF-3PEG
[Lys(MPEG5,000—CH2—CO—Nle—CO)^12,21-hGRF(1-29)—NH2] [GRF-2PEG]		comparable to those obtained with hGRF1-29	
[Lys(MPEG5,000—CH2—CO—Nle—CO)^12-hGRF(1-29)—NH2] [GRF-1PEG 2nd peak]	more active than the GRF-2PEG and GRF-3PEG	comparable to those obtained with hGRF1-29	
[Lys(MPEG5,000—CH2—CO—Nle—CO)^21-hGRF(1-29)—NH2] [GRF-1PEG 1st peak]	more active than the GRF-2PEG and GRF-3PEG	comparable to those obtained with hGRF1-29	GH release from rat pituitary cell in vitro (rank of activity) (rat pituitary cell): the most active compound
hGRF(3-29) (DAIFTNSYRKVLGQLSARKLLQDIMSR; ends and bridges not checked; UniProt P01286 34-60, looked up, fragment) [Human GRF3-29, two preparations, supplied by Bachem and by ISL, reference compound]	did not possess a significant in vitro activity		
